Row | melting point [°C] | Compound
1 | 178 to 181 | CCCSc1ncc(C[C@H](NC(=O)CCC)C(=O)O)n1Cc1ccccc1Cl [Example 1, 3-[(2-Chlorophenyl)methyl]-2-propylthio-N-butyrylhistidine]
2 | 254 to 255 | CCCCc1nc2cc(Br)cc(C(=O)O)c2n1Cc1ccccc1Cl [Example 4, 5-Bromo-2-n-butyl-1-(2-chlorophenyl)methyl-1H-benzimidazole-7-carboxylic Acid]

Reference: US20020058686A1, “Medicament” (SmithKline Beecham p.l.c., priority 1990, published 2002)
